From patent US11197836B2, “Topical vasoconstrictor preparations and methods for protecting cells during cancer chemotherapy and radiotherapy” (WISCONSIN ALUMNI RESEARCH FOUNDATION, priority 2005, dated 2021)

How the values were obtained:
[1] = test system: radiation-induced alopecia; details: 950 mM in 50:30:20 ethanol:PG:water, 10 day old rats
Description: At specific time points, digital images were recorded to show areas of skin blanch in the epi-treated rats.

[2] = Dissolution and 24 hr solution status of vasoconstrictor salts in ethanol:PG:water diluents, Example 6; type: physicochemical
Description: Aliquots of each vasoconstrictor salt were weighed into glass test tubes. The volume of liquid necessary to achieve the indicated final drug concentration was then added.
(§1) The approximate amount of heat required to dissolve the vasoconstrictor salt in each diluent is indicated. Once diluted, samples were sealed and held at room temperature (22° C.) for 24 hours and then at 4° C. for 24 hours. Skin blanch induced by the topical formulation was assessed by applying freshly made, clear formulation to human skin shortly after initial mixing. Drug solutions were monitored for the appearance of precipitated material over a 48 hour observation period.

human oral mucosa = test system: human oral mucosa
Description: A QTip wetted with the 1 mM solution was used to swab the lower lip and oral mucosa adjoining the lower lip during the first 20 min. […] Images were taken and then scored for the degree of mucosal blanch observed.

[3] = test system: radiation-induced oral mucositis; assay: Radiation-induced oral mucositis in hamster cheek pouch, Example 16; details: for mucosal pathology: hamster cheek pouch
human skin = assay: Human skin blanch 20 min after topical application, Example 6; type: in vivo; details: for Skin Blanch: 600 mM, human skin, 20 min after topical application
Description: as §1

human forearm skin = assay: Human forearm skin blanch and irritation with permeation enhancers, Example 8; type: in vivo; details: water
Description: In samples where a clear, norepinephrine-containing solution was achieved, an aliquot (˜100 μl) was applied to a ˜1 cm^2 area of human forearm skin using a cotton swab. The extent of skin blanch (i.e., dermal vasculature constriction) beneath the application site was visually scored over the 60 min following application.

[4] = 50:30:20 Ethanol:PG:water, 750 mM
[5] = 10 mM topical, human lip and oral mucosa
[6] = 15:30:55 Ethanol:PG:water, 1000 mM
[7] = 20:30:50 Ethanol:PG:water, 1500 mM
[8] = 60:0:40 isopropanol:PG:water, 1500 mM
[9] = 0:50:50 Ethanol:PG:water, 1800 mM
[10] = 0:80:20 Ethanol:PG:water, 1800 mM
[11] = 12:30:58 Ethanol:PG:water, 450 mM
[12] = 12:30:58 Ethanol:PG:water, 600 mM
[13] = 12:30:58 Ethanol:PG:water, 750 mM
[14] = 15:30:55 Ethanol:PG:water, 600 mM
[15] = 33:33:33 Ethanol:PG:water, 1800 mM
[16] = 40:25:35 Ethanol:PG:water, 600 mM
[17] = 40:30:30 Ethanol:PG:water, 300 mM
[18] = 44:18:33 Ethanol:PG:water, 600 mM
[19] = 45:25:30 Ethanol:PG:water, 300 mM
[20] = 45:25:30 Ethanol:PG:water, 600 mM
[21] = 50:20:30 Ethanol:PG:water, 600 mM
[22] = 50:25:25 Ethanol:PG:water, 600 mM
[23] = 50:30:20 Ethanol:PG:water, 600 mM
[24] = 55:20:25 Ethanol:PG:water, 600 mM
[25] = 60:20:20 Ethanol:PG:water, 600 mM
[26] = 10:30:60 Ethanol:PG:water, 4000 mM
[27] = 10:30:60 Ethanol:PG:water, 5000 mM
[28] = 10:30:60 Ethanol:PG:water, 5500 mM
[29] = 12:30:58 Ethanol:PG:water, 3300 mM
[30] = 15:30:55 Ethanol:PG:water, 500 mM

With `CNC[C@H](O)c1ccc(O)c(O)c1.Cl` (racemic) [Epi (±), (±) epinephrine-HCl] the “skin blanch in treated skin field” value ([1]; by 120 min) was “single blanched field”, the “coat protection on day 20” value ([1]; four applications, 7.5 Gy whole-body γ radiation) was “confluent area of protected coat” and the “Heat required to completely dissolve vasoconstrictor salt (#secs. at 100° C.)” value (shortened to “Heat required”) [2, 4] was 0 s. The “Sample status after 24 hr at 4° C.” value [2, 4] was “clear” and the “Sample status after 24 hr at ~22° C.” value [2, 4] was “clear”.

With `CNC[C@H](O)c1ccc(O)c(O)c1.O=C(O)C(O)C(O)C(=O)O` [Epi, L (−) epinephrine-tartrate] the blanch response (human oral mucosa; 1 mM solution swabbed on lower lip and oral mucosa during first 20 min, human) was “little blanch response”, the duration of blanching (human oral mucosa; 10 mM topical, four times over 50 min, human lip and oral mucosa) was 1.5 to 2 h and the “time to clear blanching of lip and mucosa” value (human oral mucosa; [5]) was ≤ 20 min. For the same compound, the “time to normal color lip and mucosa” value (human oral mucosa; [5]) was ≤ 3 h, the “topical concentration completely protective against γ radiation-induced pathology” value ([3]; hamster cheek pouch mucosal surface) was 400 μM and the mucosal pathology ([3]; large excess doses combined with 24 min of irradiation (40 Gy)) was “severe mucosal pathology”. For the same compound, the mucosal pathology ([3]; large excess doses without irradiation) was “no discernible mucosal pathology”, the “Heat required” value [2, 6] was 0 s and the “Sample status after 24 hr at 4° C.” value [2, 6] was “clear”. For the same compound, the “Sample status after 24 hr at ~22° C.” value [2, 6] was “clear”, the “Heat required” value [2, 7] was 0 s and the “Sample status after 24 hr at 4° C.” value [2, 7] was “clear”. The “Sample status after 24 hr at ~22° C.” value [2, 7] was “clear”, the “Heat required” value [2, 8] was 0 s and the “Sample status after 24 hr at 4° C.” value [2, 8] was “clear”. For the same compound, the “Sample status after 24 hr at ~22° C.” value [2, 8] was “clear”.

In the case of `COc1ccc(OC)c(C(O)C(C)N)c1` (stereo not drawn) [Methoxamine], the “potency to induce skin blanch” value (human skin; applied to unbroken human skin) is reported as “lacks the potency to adequately induce skin blanch”.

With `NC[C@H](O)c1ccc(O)c(O)c1.O=C(O)C(O)C(O)C(=O)O` [Nep, L (−) norepinephrine-tartrate] the “Skin Blanch” value (human skin; 55:20:25 Ethanol:PG:water) was “+++++ (+++++ = 90-100% blanch)”, the “Skin Blanch” value (human skin; 60:20:20 Ethanol:PG:water) was “+++++ (+++++ = 90-100% blanch)” and the “Heat required” value [2, 9] was 6 s. For the same compound, the “Sample status after 24 hr at 4° C.” value [2, 9] was “precipitate”, the “Sample status after 24 hr at ~22° C.” value [2, 9] was “precipitate” and the “Heat required” value [2, 10] was 24 s. For the same compound, the “Sample status after 24 hr at 4° C.” value [2, 10] was “precipitate”, the “Sample status after 24 hr at ~22° C.” value [2, 10] was “precipitate” and the “Heat required” value [2, 11] was 0 s. The “Sample status after 24 hr at 4° C.” value [2, 11] was “clear”, the “Sample status after 24 hr at ~22° C.” value [2, 11] was “clear” and the “Heat required” value [2, 12] was 0 s. For the same compound, the “Sample status after 24 hr at 4° C.” value [2, 12] was “clear”, the “Sample status after 24 hr at ~22° C.” value [2, 12] was “clear” and the “Heat required” value [2, 13] was 0 s. The “Sample status after 24 hr at 4° C.” value [2, 13] was “clear”, the “Sample status after 24 hr at ~22° C.” value [2, 13] was “clear” and the “Heat required” value [2, 14] was 0 s. The “Sample status after 24 hr at 4° C.” value [2, 14] was “clear”, the “Sample status after 24 hr at ~22° C.” value [2, 14] was “clear” and the “Heat required” value [2, 6] was 0 s. For the same compound, the “Sample status after 24 hr at 4° C.” value [2, 6] was “clear”, the “Sample status after 24 hr at ~22° C.” value [2, 6] was “clear” and the “Heat required” value [2, 15] was 18 s. The “Sample status after 24 hr at 4° C.” value [2, 15] was “precipitate”, the “Sample status after 24 hr at ~22° C.” value [2, 15] was “precipitate” and the “Heat required” value [2, 16] was 2 s. For the same compound, the “Sample status after 24 hr at 4° C.” value [2, 16] was “clear”, the “Sample status after 24 hr at ~22° C.” value [2, 16] was “clear” and the “Heat required” value [2, 17] was 2 s. The “Sample status after 24 hr at 4° C.” value [2, 17] was “clear”, the “Sample status after 24 hr at ~22° C.” value [2, 17] was “clear” and the “Heat required” value [2, 18] was 2 s. For the same compound, the “Sample status after 24 hr at 4° C.” value [2, 18] was “clear”, the “Sample status after 24 hr at ~22° C.” value [2, 18] was “clear” and the “Heat required” value [2, 19] was 2 s. The “Sample status after 24 hr at 4° C.” value [2, 19] was “clear”, the “Sample status after 24 hr at ~22° C.” value [2, 19] was “clear” and the “Heat required” value [2, 20] was 2 s. For the same compound, the “Sample status after 24 hr at 4° C.” value [2, 20] was “clear”, the “Sample status after 24 hr at ~22° C.” value [2, 20] was “clear” and the “Heat required” value [2, 21] was 1 s. The “Sample status after 24 hr at 4° C.” value [2, 21] was “clear”, the “Sample status after 24 hr at ~22° C.” value [2, 21] was “clear” and the “Heat required” value [2, 22] was 1 s. The “Sample status after 24 hr at 4° C.” value [2, 22] was “clear”, the “Sample status after 24 hr at ~22° C.” value [2, 22] was “clear” and the “Heat required” value [2, 23] was 1 s. The “Sample status after 24 hr at 4° C.” value [2, 23] was “clear”, the “Sample status after 24 hr at ~22° C.” value [2, 23] was “clear” and the “Heat required” value [2, 24] was 1 s. For the same compound, the “Sample status after 24 hr at 4° C.” value [2, 24] was “precipitate”, the “Sample status after 24 hr at ~22° C.” value [2, 24] was “precipitate” and the “Heat required” value [2, 25] was 2 s. For the same compound, the “Sample status after 24 hr at 4° C.” value [2, 25] was “clear”, the “Sample status after 24 hr at ~22° C.” value [2, 25] was “clear” and the “Skin Irritation” value (human forearm skin; 300 mM Nep) was “No”. The “Skin Irritation” value (human forearm skin; 300 mM Nep, 0.8% SLS) was “No”, the “Skin Blanch” value (human forearm skin; 300 mM Nep, 0.8% SLS, 20 min) was 0 and the “Skin Blanch” value (human forearm skin; 300 mM Nep, 20 min after topical application) was 0. The “Skin Irritation” value (human forearm skin; 300 mM Nep, ethanol) was “No”, the “Skin Irritation” value (human forearm skin; 300 mM Nep, ethanol, 0.8% SLS) was “Slight” and the “Skin Irritation” value (human forearm skin; 300 mM Nep, ethanol, 5% Menthone) was “Slight”. The “Skin Irritation” value (human forearm skin; 300 mM Nep, ethanol, PG) was “No”, the “Skin Irritation” value (human forearm skin; 300 mM Nep, ethanol, PG, 0.3% SLS) was “No” and the “Skin Irritation” value (human forearm skin; 300 mM Nep, ethanol, PG, 0.3% SLS, 5% Menthone) was “Yes”. The “Skin Blanch” value (human forearm skin; 300 mM Nep, ethanol, PG, 0.3% SLS, 5% Menthone, 20 min) was “+++++ (+++++ = 90-100% blanch)”, the “Skin Irritation” value (human forearm skin; 300 mM Nep, ethanol, PG, 5% Methone) was “No” and the “Skin Irritation” value (human forearm skin; 300 mM Nep, ethanol, Transcutol) was “No”. For the same compound, the “Skin Irritation” value (human forearm skin; 300 mM Nep, ethanol, Transcutol, 0.4% SLS) was “No”, the “Skin Irritation” value (human forearm skin; 600 mM NEp, ethanol, PG) was “No” and the “Skin Blanch” value (human forearm skin; 600 mM NEp, ethanol, PG, 20 min) was “+++++ (+++++ = 90-100% blanch)”. For the same compound, the “Skin Irritation” value (human forearm skin; 750 mM NEp, ethanol, PG) was “No” and the “Skin Blanch” value (human forearm skin; 750 mM NEp, ethanol, PG, 20 min) was “+++++ (+++++ = 90-100% blanch)”.

With `CNC[C@H](O)c1cccc(O)c1.Cl` [PhE, R (−) phenylephrine-HCl] the “Heat required” value [2, 26] was 12 s, the “Sample status after 24 hr at 4° C.” value [2, 26] was “precipitate” and the “Sample status after 24 hr at ~22° C.” value [2, 26] was “precipitate”. The “Heat required” value [2, 27] was 12 s, the “Sample status after 24 hr at 4° C.” value [2, 27] was “precipitate” and the “Sample status after 24 hr at ~22° C.” value [2, 27] was “precipitate”. The “Heat required” value [2, 28] was 16 s, the “Sample status after 24 hr at 4° C.” value [2, 28] was “precipitate” and the “Sample status after 24 hr at ~22° C.” value [2, 28] was “precipitate”. For the same compound, the “Heat required” value [2, 29] was 8 s, the “Sample status after 24 hr at 4° C.” value [2, 29] was “precipitate” and the “Sample status after 24 hr at ~22° C.” value [2, 29] was “precipitate”. The “Heat required” value [2, 30] was 8 s, the “Sample status after 24 hr at 4° C.” value [2, 30] was “precipitate” and the “Sample status after 24 hr at ~22° C.” value [2, 30] was “clear”.
